Laboratory results as given in ChEMBL document CHEMBL1926511, “Novel amino-piperidines as potent antibacterials targeting bacterial type IIA topoisomerases” (Bioorg Med Chem Lett, 2011).
pIC50: −log10 of the molar value. Values after ≈ are worked out from the molar mass of the structure shown. Blank lines part the entries; values can stand above or below the compound they belong to. Active and inactive are the calls of the source. No cut-off for these calls is given here.

What was measured:
[1] = Inhibition of Haemophilus influenzae DNA gyrase-dependent DNA replication by scintillation proximity assay
Haemophilus influenzae = test: Antibacterial activity against Haemophilus influenzae H128 after 18 to 24 hrs by broth microdilution method; assay type: functional
Staphylococcus aureus = test: Antibacterial activity against Staphylococcus aureus WCUH 29 after 18 to 24 hrs by broth microdilution method; assay type: functional
Streptococcus pneumoniae [2] = test: Antibacterial activity against Streptococcus pneumoniae 1629 after 18 to 24 hrs by broth microdilution method; assay type: functional
[3] = target: T1, Voltage-gated inwardly rectifying potassium channel KCNH2 (Homo sapiens, UniProt Q12809); test: Inhibition of human ERG expressed in HEK293 cells by patch-clamp electrophysiology; assay type: cell-based
T1 sequence (Q12809 whole entry): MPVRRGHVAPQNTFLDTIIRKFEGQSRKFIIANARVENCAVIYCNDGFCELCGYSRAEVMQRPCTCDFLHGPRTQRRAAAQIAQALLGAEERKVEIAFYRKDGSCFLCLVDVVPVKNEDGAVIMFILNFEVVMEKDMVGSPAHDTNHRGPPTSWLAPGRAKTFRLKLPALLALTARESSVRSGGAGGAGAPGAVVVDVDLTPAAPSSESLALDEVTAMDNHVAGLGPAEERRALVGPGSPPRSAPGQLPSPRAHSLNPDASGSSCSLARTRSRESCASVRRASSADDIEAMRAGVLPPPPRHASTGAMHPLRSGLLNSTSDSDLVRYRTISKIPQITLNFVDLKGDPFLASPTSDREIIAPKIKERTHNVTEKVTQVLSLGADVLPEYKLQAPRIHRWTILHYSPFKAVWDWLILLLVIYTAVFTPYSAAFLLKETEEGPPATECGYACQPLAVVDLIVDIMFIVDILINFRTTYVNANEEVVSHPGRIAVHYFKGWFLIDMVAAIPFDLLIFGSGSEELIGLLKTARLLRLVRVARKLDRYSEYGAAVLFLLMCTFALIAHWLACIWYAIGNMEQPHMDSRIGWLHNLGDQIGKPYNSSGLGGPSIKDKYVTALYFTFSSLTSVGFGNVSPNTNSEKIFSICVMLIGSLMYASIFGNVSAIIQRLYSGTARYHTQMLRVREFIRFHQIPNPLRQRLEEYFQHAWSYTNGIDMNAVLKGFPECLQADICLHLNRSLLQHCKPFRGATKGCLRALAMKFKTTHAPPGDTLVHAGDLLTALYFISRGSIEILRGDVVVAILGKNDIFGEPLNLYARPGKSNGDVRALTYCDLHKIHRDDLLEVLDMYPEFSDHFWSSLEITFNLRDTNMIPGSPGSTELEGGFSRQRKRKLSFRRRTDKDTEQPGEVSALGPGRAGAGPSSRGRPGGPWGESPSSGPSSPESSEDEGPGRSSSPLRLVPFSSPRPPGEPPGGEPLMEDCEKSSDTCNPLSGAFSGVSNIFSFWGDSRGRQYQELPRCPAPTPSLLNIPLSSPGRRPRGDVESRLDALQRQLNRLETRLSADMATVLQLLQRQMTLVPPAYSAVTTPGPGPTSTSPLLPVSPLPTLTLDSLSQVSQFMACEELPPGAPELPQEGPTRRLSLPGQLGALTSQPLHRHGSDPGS

[4] = target: T1, Voltage-gated inwardly rectifying potassium channel KCNH2; test: Displacement of [3H]dofetilide from human ERG by liquid scintillation counting
[5] = Distribution coefficient, log D of the compound at pH 7.4; assay type: physicochemical; conditions: octanol/water
[6] = Inhibition of Escherichia coli DNA gyrase-dependent DNA replication by scintillation proximity assay
Streptococcus pneumoniae [7] = test: Antibacterial activity against Streptococcus pneumoniae 1629 infected in rat respiratory tract infection model assessed as log reduction in bacterial burden at 50 mg/kg, po after 1 hr post infection relative to non-treated control; assay type: functional
Streptococcus pneumoniae [8] = test: Antibacterial activity against Streptococcus pneumoniae 1629 infected in rat respiratory tract infection model assessed as log reduction in bacterial burden at 50 mg/kg, po after 48 hrs post infection relative to non-treated control; assay type: functional
Streptococcus pneumoniae [9] = test: Antibacterial activity against Streptococcus pneumoniae 1629 infected in rat respiratory tract infection model assessed as complete eradication of bacterial burden at 50 mg/kg, po after 31 hrs post infection; assay type: functional, organism-based; design: dose 50 mg/kg
[10] = Blood clearance in Sprague-Dawley rat at 3.5 mg/kg, iv; assay type: ADME, organism-based; design: dose 3.5 mg/kg, route intravenous; conditions: whole blood
[11] = Blood clearance in Beagle dog at 3.5 mg/kg, iv; assay type: ADME, organism-based, Canis lupus familiaris; design: dose 3.5 mg/kg, route intravenous; conditions: whole blood
[12] = Blood clearance in cynomolgus monkey at 3.1 mg/kg, iv; assay type: ADME, organism-based, Macaca fascicularis; design: dose 3.1 mg/kg, route intravenous; conditions: whole blood
[13] = Volume of distribution at steady state in Sprague-Dawley rat at 3.5 mg/kg, iv; assay type: ADME, organism-based; design: dose 3.5 mg/kg, route intravenous; conditions: in vivo, read-out: Vdss
[14] = Volume of distribution at steady state in Beagle dog at 3.5 mg/kg, iv; assay type: ADME, organism-based, Canis lupus familiaris; design: dose 3.5 mg/kg, route intravenous; conditions: in vivo, read-out: Vdss
[15] = Volume of distribution at steady state in cynomolgus monkey at 3.1 mg/kg, iv; assay type: ADME, organism-based, Macaca fascicularis; design: dose 3.1 mg/kg, route intravenous; conditions: in vivo, read-out: Vdss
[16] = Half life in Sprague-Dawley rat at 3.5 mg/kg, iv; assay type: ADME, organism-based; design: dose 3.5 mg/kg, route intravenous; conditions: in vivo
[17] = Half life in Beagle dog at 3.5 mg/kg, iv; assay type: ADME, organism-based, Canis lupus familiaris; design: dose 3.5 mg/kg, route intravenous; conditions: in vivo
[18] = Half life in cynomolgus monkey at 3.1 mg/kg, iv; assay type: ADME, organism-based, Macaca fascicularis; design: dose 3.1 mg/kg, route intravenous; conditions: in vivo
[19] = Mean residence time in Sprague-Dawley rat at 3.5 mg/kg, iv; assay type: ADME, organism-based; design: dose 3.5 mg/kg, route intravenous; conditions: in vivo
[20] = Mean residence time in Beagle dog at 3.5 mg/kg, iv; assay type: ADME, organism-based, Canis lupus familiaris; design: dose 3.5 mg/kg, route intravenous; conditions: in vivo
[21] = Mean residence time in cynomolgus monkey at 3.1 mg/kg, iv; assay type: ADME, organism-based, Macaca fascicularis; design: dose 3.1 mg/kg, route intravenous; conditions: in vivo
[22] = AUC in Sprague-Dawley rat at 5.6 mg/kg, po; assay type: ADME, organism-based; design: dose 5.6 mg/kg, route oral; conditions: plasma
[23] = AUC in Beagle dog at 4 mg/kg, po; assay type: ADME, organism-based, Canis lupus familiaris; design: dose 4 mg/kg, route oral; conditions: plasma
[24] = AUC in cynomolgus monkey at 5.2 mg/kg, po; assay type: ADME, organism-based, Macaca fascicularis; design: dose 5.2 mg/kg, route oral; conditions: plasma
[25] = Oral bioavailability in Sprague-Dawley rat at 5.6 mg/kg; assay type: ADME, organism-based; conditions: in vivo
[26] = Oral bioavailability in Beagle dog at 4 mg/kg; assay type: ADME, organism-based, Canis lupus familiaris; conditions: in vivo
[27] = Oral bioavailability in cynomolgus monkey at 5.2 mg/kg; assay type: ADME, organism-based, Macaca fascicularis; conditions: in vivo
[28] = Plasma protein binding in rat; assay type: ADME, cell-free; conditions: read-out: PPB (converted)
[29] = Plasma protein binding in cynomolgus monkey; assay type: ADME, cell-free, Macaca fascicularis; conditions: read-out: PPB (converted)
[30] = Plasma protein binding in human; assay type: ADME, cell-free; conditions: read-out: PPB (converted)
Liver = test: Intrinsic clearance in dog liver microsomes; assay type: ADME, Canis lupus familiaris, Microsome
[31] = Intrinsic clearance in cynomolgus monkey liver microsomes; assay type: ADME, Macaca fascicularis, Microsome
Liver microsomes = test: Intrinsic clearance in human liver microsomes; assay type: ADME, Microsome
Rattus norvegicus = species on record: Rattus norvegicus; test: Hepatic blood flow in Sprague-Dawley rat; assay type: ADME, organism-based, Liver
Canis familiaris = species on record: Canis familiaris; test: Hepatic blood flow in Beagle dog; assay type: ADME, organism-based, Canis lupus familiaris, Liver
Cynomolgus monkey = test: Hepatic blood flow in cynomolgus monkey; assay type: ADME, organism-based, Macaca fascicularis, Liver

Structure (SMILES): COc1ccc2nccc([C@@H](O)CN3CCC(NCc4cc5c(cn4)OCCO5)CC3)c2n1
IC50 [1]: 0.016 µg/mL (≈ 0.0354 µM)
IC50 [6]: 0.056 µg/mL (≈ 0.124 µM)
MIC (Haemophilus influenzae): 2 µg/mL (≈ 4.43 µM)
MIC (Staphylococcus aureus): 0.06 µg/mL (≈ 0.133 µM)
MIC (Streptococcus pneumoniae [2]): 0.125 µg/mL (≈ 0.277 µM)
pIC50 [3]: 5.40
pIC50 [4]: 4.60
logD [5]: 0.62

Structure (SMILES): COc1ccc2ncc(F)c([C@H](O)CN3CCC(NCc4cc5c(cn4)OCCO5)CC3)c2n1
IC50 [1]: 0.098 µg/mL (≈ 0.209 µM)
MIC (Haemophilus influenzae): 1 µg/mL (≈ 2.13 µM)
MIC (Staphylococcus aureus): 0.06 µg/mL (≈ 0.128 µM)
MIC (Streptococcus pneumoniae [2]): 0.125 µg/mL (≈ 0.266 µM)
pIC50 [4]: 4.20

Structure (SMILES): COc1ccc2ncc(F)c(CCN3CC[C@@H](NCc4cc5c(cn4)OCCO5)[C@@H](O)C3)c2n1
IC50 [1]: 0.051 µg/mL (≈ 0.109 µM)
MIC (Haemophilus influenzae): 0.5 µg/mL (≈ 1.06 µM)
MIC (Staphylococcus aureus): 0.01 µg/mL (≈ 0.0213 µM)
MIC (Streptococcus pneumoniae [2]): 0.06 µg/mL (≈ 0.128 µM)
logD [5]: 1.38
log10cfu (Streptococcus pneumoniae [7]): 2
log10cfu (Streptococcus pneumoniae [8]): >=4
Activity (Streptococcus pneumoniae [9]): Active

Structure (SMILES): COc1ccc2nccc([C@@H](O)CN3CCC(NCc4ccc5c(c4)OCCO5)CC3)c2c1
IC50 [6]: 0.008 µg/mL (≈ 0.0178 µM)
MIC (Haemophilus influenzae): 0.5 µg/mL (≈ 1.11 µM)
MIC (Staphylococcus aureus): 0.125 µg/mL (≈ 0.278 µM)
MIC (Streptococcus pneumoniae [2]): 0.125 µg/mL (≈ 0.278 µM)
logD [5]: 0.87

Structure (SMILES): COc1ccc2ncc(F)c([C@@H](O)CN3CCC(NCc4cc5c(cn4)OCCO5)CC3)c2n1
IC50 [1]: 0.078 µg/mL (≈ 0.166 µM)
MIC (Haemophilus influenzae): 0.5 µg/mL (≈ 1.06 µM)
MIC (Staphylococcus aureus): 0.03 µg/mL (≈ 0.0639 µM)
MIC (Streptococcus pneumoniae [2]): 0.06 µg/mL (≈ 0.128 µM)
pIC50 [3]: 5.30
pIC50 [4]: 4.10
logD [5]: 0.59
log10cfu (Streptococcus pneumoniae [7]): 2
log10cfu (Streptococcus pneumoniae [8]): >=4
Activity (Streptococcus pneumoniae [9]): Active
clearance [10]: 67.2 mL/min/kg
clearance [11]: 16.7 mL/min/kg
clearance [12]: 15.2 mL/min/kg
Vd [13]: 9.8 L/kg
Vd [14]: 16.5 L/kg
Vd [15]: 4.1 L/kg
half-life [16]: 2.5 h
half-life [17]: 12.4 h
half-life [18]: 5.6 h
MRT [19]: 2.5 h
MRT [20]: 16.5 h
MRT [21]: 4.6 h
AUC [22]: 720 ng·h/mL
AUC [23]: 2510 ng·h/mL
AUC [24]: 720 ng·h/mL
bioavailability [25]: 51%
bioavailability [26]: 76%
bioavailability [27]: 12%
fraction unbound [28]: 0.589
fraction unbound [29]: 0.354
fraction unbound [30]: 0.307
CL (Liver): 0.7 mL/min/g
CL [31]: 4.8 mL/min/g
CL (Liver microsomes): < 0.6 mL/min/g
QH (Rattus norvegicus): 100%
QH (Canis familiaris): 35%
QH (Cynomolgus monkey): 35%

Structure (SMILES): COc1ccc2ncc(C#N)c(CCN3CCC(NCc4cc5c(cn4)OCCO5)CC3)c2n1
IC50 [1]: 0.144 µg/mL (≈ 0.313 µM)
MIC (Haemophilus influenzae): 0.5 µg/mL (≈ 1.09 µM)
MIC (Staphylococcus aureus): 0.01 µg/mL (≈ 0.0217 µM)
MIC (Streptococcus pneumoniae [2]): 0.03 µg/mL (≈ 0.0651 µM)
logD [5]: 1.48

Structure (SMILES): COc1ccc2ncc(F)c(CCN3CC[C@H](NCc4cc5c(cn4)OCCO5)[C@@H](O)C3)c2n1
IC50 [1]: 0.058 µg/mL (≈ 0.124 µM)
MIC (Haemophilus influenzae): 0.5 µg/mL (≈ 1.06 µM)
MIC (Staphylococcus aureus): 0.01 µg/mL (≈ 0.0213 µM)
MIC (Streptococcus pneumoniae [2]): 0.03 µg/mL (≈ 0.0639 µM)
logD [5]: 2.1

The remaining compounds from weak to strong by MIC (Haemophilus influenzae), led by results:

IC50 [1]: 0.072 µg/mL (≈ 0.153 µM)
MIC (Haemophilus influenzae): 0.5 µg/mL (≈ 1.06 µM)
MIC (Staphylococcus aureus): 0.03 µg/mL (≈ 0.0639 µM)
MIC (Streptococcus pneumoniae [2]): 0.06 µg/mL (≈ 0.128 µM)
logD [5]: 1.52
Structure (SMILES): COc1ccc2ncc(F)c(CCN3CC[C@H](NCc4cc5c(cn4)OCCO5)[C@H](O)C3)c2n1
log10cfu (Streptococcus pneumoniae [7]): 2
log10cfu (Streptococcus pneumoniae [8]): >=4
Activity (Streptococcus pneumoniae [9]): Active

IC50 [1]: 0.058 µg/mL (≈ 0.124 µM)
MIC (Haemophilus influenzae): 0.5 µg/mL (≈ 1.06 µM)
MIC (Staphylococcus aureus): 0.01 µg/mL (≈ 0.0213 µM)
MIC (Streptococcus pneumoniae [2]): 0.03 µg/mL (≈ 0.0639 µM)
logD [5]: 2.16
Structure (SMILES): COc1ccc2ncc(F)c(CCN3CC[C@@H](NCc4cc5c(cn4)OCCO5)[C@H](O)C3)c2n1

IC50 [1]: 0.031 µg/mL (≈ 0.0685 µM)
MIC (Haemophilus influenzae): 0.25 µg/mL (≈ 0.552 µM)
MIC (Staphylococcus aureus): 0.01 µg/mL (≈ 0.0221 µM)
MIC (Streptococcus pneumoniae [2]): 0.03 µg/mL (≈ 0.0663 µM)
logD [5]: 2.03
Structure (SMILES): COc1ccc2ncc(F)c(CCN3CCC(NCc4cc5c(cn4)OCCO5)CC3)c2c1
pIC50 [3]: 5.22
pIC50 [4]: 5.30

IC50 [1]: 0.027 µg/mL (≈ 0.0575 µM)
MIC (Haemophilus influenzae): 0.25 µg/mL (≈ 0.532 µM)
MIC (Staphylococcus aureus): 0.01 µg/mL (≈ 0.0213 µM)
MIC (Streptococcus pneumoniae [2]): 0.01 µg/mL (≈ 0.0213 µM)
logD [5]: 2.4
Structure (SMILES): COc1ccc2ncc(Cl)c(CCN3CCC(NCc4cc5c(cn4)OCCO5)CC3)c2n1
pIC50 [3]: 5.70
pIC50 [4]: 5.70
log10cfu (Streptococcus pneumoniae [7]): 2
log10cfu (Streptococcus pneumoniae [8]): >=4
Activity (Streptococcus pneumoniae [9]): Active

IC50 [1]: 0.06 µg/mL (≈ 0.13 µM)
MIC (Haemophilus influenzae): 0.25 µg/mL (≈ 0.542 µM)
MIC (Staphylococcus aureus): 0.01 µg/mL (≈ 0.0217 µM)
MIC (Streptococcus pneumoniae [2]): 0.01 µg/mL (≈ 0.0217 µM)
logD [5]: 2.32
Structure (SMILES): COc1ccc2ncc(C#N)c(CCN3CCC(NCc4cc5c(cn4)OCS5)CC3)c2c1
pIC50 [3]: 5.70
pIC50 [4]: 6.30

IC50 [1]: 0.051 µg/mL (≈ 0.112 µM)
MIC (Haemophilus influenzae): 0.125 µg/mL (≈ 0.276 µM)
MIC (Staphylococcus aureus): 0.01 µg/mL (≈ 0.022 µM)
MIC (Streptococcus pneumoniae [2]): 0.01 µg/mL (≈ 0.022 µM)
logD [5]: 1.81
Structure (SMILES): COc1ccc2ncc(F)c(CCN3CCC(NCc4cc5c(cn4)OCCO5)CC3)c2n1
log10cfu (Streptococcus pneumoniae [7]): 2
log10cfu (Streptococcus pneumoniae [8]): >=4
Activity (Streptococcus pneumoniae [9]): Active
